Literature values as cited in patent US20040005368A1, “Novel approach to weight loss comprising a modified protein composition that regulates blood sugar in conjunction with compositions that increase oxygen uptake and suppress appetite” (priority 2002, published 2004).

Settings: group of animals

Row | SMILES | loss in body weight | loss in body fat
1 | Cn1c(=O)c2c(ncn2C)n(C)c1=O [caffeine] | no significant loss in body weight | 
2 | CN[C@@H](C)[C@H](O)c1ccccc1 [ephedrine] | 14% | 42%
